# Test results: patent publication US20140024638A1, “TREATMENT OF COGNITIVE DYSFUNCTION IN SCHIZOPHRENIA” (TARGACEPT, INC., priority 2011, published 2014)
# Key:
# [1] = system: patients with schizophrenia; test: CogState Identification task (attention), Phase 2 trial; assay type: in vivo, human; details: for CogState Identification: Mean (SE): tobacco users meeting data integrity criteria; for CogState Identification: Mean (SEM): total population, subjects meeting data integrity criteria
# Protocol: (§1) The double blind, placebo controlled Phase 2 trial was conducted at 7 sites in the United States and 12 sites in India. […] Of the randomized patients, approximately 69% were male and approximately 46% were users of tobacco products. […] The primary efficacy outcome measure was GMLT, and the trial included a number of other scales as secondary efficacy outcome measures.
# [2] = system: patients with schizophrenia; test: CogState 1-Card Learning task (visual learning), Phase 2 trial; assay type: in vivo, human; details: for CogState 1-Card Learning: Mean (SE): tobacco users meeting data integrity criteria; for CogState 1-Card Learning: Mean (SEM): total population, subjects meeting data integrity criteria
# Protocol: as §1
# [3] = system: patients with schizophrenia; test: CogState 1-Back task (working memory), Phase 2 trial; assay type: in vivo, human; details: for CogState 1-Back: Mean (SE): tobacco users meeting data integrity criteria; for CogState 1-Back: Mean (SEM): total population, subjects meeting data integrity criteria
# Protocol: as §1
# healthy volunteers = test: phase 1 trials in healthy volunteers; assay type: in vivo, human
# α7 NNR receptor = α7 NNR receptor (Homo sapiens, UniProt P36544); test: agonism at the α7 NNR receptor; assay type: biochemical
# Sequence of α7 NNR receptor (P36544 23-502): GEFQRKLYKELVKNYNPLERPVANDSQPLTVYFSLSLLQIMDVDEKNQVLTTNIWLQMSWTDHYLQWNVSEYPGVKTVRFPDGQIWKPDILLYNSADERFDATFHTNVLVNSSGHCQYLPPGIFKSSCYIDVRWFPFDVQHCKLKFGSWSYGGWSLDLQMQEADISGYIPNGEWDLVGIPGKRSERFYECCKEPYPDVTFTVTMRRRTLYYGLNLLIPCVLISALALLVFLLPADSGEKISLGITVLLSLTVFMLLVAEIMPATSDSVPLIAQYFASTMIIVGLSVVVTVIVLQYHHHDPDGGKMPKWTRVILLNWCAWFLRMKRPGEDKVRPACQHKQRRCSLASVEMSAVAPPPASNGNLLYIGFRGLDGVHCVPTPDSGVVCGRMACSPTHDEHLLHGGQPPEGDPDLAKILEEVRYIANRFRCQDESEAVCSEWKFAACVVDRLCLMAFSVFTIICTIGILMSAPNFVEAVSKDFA
smiles,measurement,setting,value
"O=C(N[C@@H]1C2CCN(CC2)[C@H]1Cc1cccnc1)c1cc2ccccc2o1 (single isomer, unassigned) [TC-5619]","CogState identification (attention), result in words",[1]; in vivo,statistically significant results of improvement
same,CogState Identification: Mean (SE),"[1]; Week 4, 1 mg daily, 1-tailed p = 0.097",−0.021 (0.016); p = 0.097
same,CogState Identification: Mean (SE),"[1]; Week 8, 5 mg daily, 1-tailed p = 0.261",−0.011 (0.017); p = 0.261
same,CogState Identification: Mean (SE),"[1]; Week 12, 25 mg daily, 1-tailed p = 0.057",−0.026 (0.016); p = 0.057
same,CogState Identification: Mean (SEM),"[1]; Week 4, 1 mg daily, 1-tailed p = 0.311",−0.005 (0.011); p = 0.311
same,CogState Identification: Mean (SEM),"[1]; Week 8, 5 mg daily, 1-tailed p = 0.111",−0.014 (0.012); p = 0.111
same,CogState Identification: Mean (SEM),"[1]; Week 12, 25 mg daily, 1-tailed p = 0.063",−0.017 (0.011); p = 0.063
same,"CogState 1-card learning (visual learning), result in words",[2]; in vivo,statistically significant results of improvement
same,CogState 1-Card Learning: Mean (SE),"[2]; Week 4, 1 mg daily, 1-tailed p = 0.615",−0.008 (0.027); p = 0.615
same,CogState 1-Card Learning: Mean (SE),"[2]; Week 8, 5 mg daily, 1-tailed p = 0.778",−0.021; 0.028); p = 0.778
same,CogState 1-Card Learning: Mean (SE),"[2]; Week 12, 25 mg daily, 1-tailed p = 0.338",0.012 (0.028); p = 0.338
same,CogState 1-Card Learning: Mean (SEM),"[2]; Week 4, 1 mg daily, 1-tailed P = 0.660",−0.008 (0.019); P = 0.660 ^
same,CogState 1-Card Learning: Mean (SEM),"[2]; Week 8, 5 mg daily, 1-tailed P = 0.899",−0.024 (0.019); P = 0.899 ^
same,CogState 1-Card Learning: Mean (SEM),"[2]; Week 12, 25 mg daily, 1-tailed P = 0.841",−0.019 (0.020); P = 0.841 ^
same,"CogState 1-back (working memory), result in words",[3]; in vivo,statistically significant results of improvement
same,CogState 1-Back: Mean (SE),"[3]; Week 4, 1 mg daily, 1-tailed p = 0.605",0.005 (0.021); p = 0.605
same,CogState 1-Back: Mean (SE),"[3]; Week 8, 5 mg daily, 1-tailed p = 0.329",−0.009 (0.021); p = 0.329
same,CogState 1-Back: Mean (SE),"[3]; Week 12, 25 mg daily, 1-tailed p = 0.020",−0.042 (0.020); p = 0.020
same,CogState 1-Back: Mean (SEM),"[3]; Week 4, 1 mg daily, 1-tailed p = 0.691",0.007 (0.014); p = 0.691
same,CogState 1-Back: Mean (SEM),"[3]; Week 8, 5 mg daily, 1-tailed p = 0.647",0.005 (0.015); p = 0.647
same,CogState 1-Back: Mean (SEM),"[3]; Week 12, 25 mg daily, 1-tailed p = 0.042",−0.024 (0.014); p = 0.042
same,attention,healthy volunteers; 6.7 mg administered,robust improvement in attention
same,tolerability,healthy volunteers; phase 1 trials,generally well tolerated
same,agonist character at the α7 NNR,"α7 NNR receptor; listed as (2S,3R)—N-(2-((3-pyridinyl)methyl)-1-azabicyclo[2.2.2]oct-3-yl)benzofuran-2-carb",selective alpha7 NNR agonist
same,agonist character at the α7 NNR,α7 NNR receptor; listed as Compound A,"highly selective, full agonist"
same,separation between EC50 and the IC50 (for residual inhibition),α7 NNR receptor; α7 NNR receptor,good separation
